Entries after “also recorded” stand apart in the source; their conditions may differ. Where two headings read alike, the source gives them in different places.
Legend:
[1] = Pharmacokinetic evaluation of QC-199 in mouse plasma and brain, IP or oral; assay type: in vivo; conditions: for half-life: from Lambda z; for AUC: read-out: AUCall (0-12); for Cmax: mouse, male CD-1 mice
Description: Regular male CD1 mice, 6 weeks old, were obtained from Charles River Laboratories, St. Zotique, PQ, Canada. The mice weighed 22-28 g. The experiments were approved by the Animal Care Committee, McGill University, Montreal, Quebec. The animals were housed in individual cages and were fed standard rodent chow and water ad libitum. Mice weights were measured with a digital balance accurate to 0.05 g and then received QC-199 at the indicated doses either orally, or via i.p. injections or following i.v. slow infusion. In the case of i.v. injection or i.v. infusion, mice were anesthetized using isoflurane-based system (DISPOMED, MODUFLEX COMPACT NRB, 3975-0800-000). For the infusion, a mini pump (NE-1800, New Era Pump Systems, Inc.) was used to infuse the compound via the tail vein during a 2 h period. In one study, blood and brain tissue samples were collected at various time points after administration of QC-199 using EDTA tubing (Das Original S-Monovette EDTA KE/1.2 ml lot.9094102 and Needle for S-Monovette 22G lot. 8073401) via cardiac puncture and immediately stored at 4° C. Serum was collected after the samples were centrifuged 2200×, 4° C. for 20 minutes and stored at −80° C. until analysis. For the brain tissue collection, skin of mice was removed and brain was carefully dissected out from the skull, transferred into a Petri dish, briefly washed with ice-cold phosphate-buffered saline (PBS), and immediately stored at −80° C. until further analysis.
The assay of QC-199 in mouse plasma and brain samples was carried out using qualified LC/MS/MS assay methods.

[2] = system: SKMEL-V+ tumors (blood vessels, CD31 positive cells); experiment: CD31 / H&E staining, microvessel density of SKMEL-V+ tumors; assay type: in vivo, mouse; conditions: SKMEL-V+ tumors from treated mice; hydrochloride
Description: SKMEL-V (human melanoma cells). SKMEL-V cells were derived from SKMEL-24 cells (ATCC) by overexpression of mouse VEGF. […] Tumors were either snap frozen in liquid nitrogen or fixed in 10% buffered formalin and embedded in paraffin. […] BD PharMingen, San Diego, Calif.). […] Sections were rehydrated in PBS and then blocked with 5% normal goat serum for 1 h. The sections were then incubated overnight at 4° C. with CD31 antibody diluted 1:25 in 3% BSA-PBS. […] Paraffin-embedded material was used for Harris' hematoxylin. Microvessel density was quantified using a method described by Weidner et al ([…], and Folkman […]. Med, 1991; 324:1-8). Briefly, randomly vascularized areas were selected (hot spots) under 40× field and 100× fields. Then a 400× field was used to count microvessels in each of these areas. Single endothelial cells or clusters of endothelial cells with or without lumen were considered to be individual vessels. […] All slides were examined blindly with no prior knowledge of the treatment status.

[3] = system: rat C6 glioma cells; experiment: Cell proliferation, [3H]thymidine incorporation, rat C6 glioma cells; assay type: cell-based; conditions: 6.5 μM, 18 h, hHO-1-transfected rat C6 glioma cells; hydrochloride
Description: Rat C6 glioma cells were cultivated in high glucose DMEM supplemented with 10% heat-inactivated fetal bovine serum, […], and penicillin-streptomycin (50 U/mL and 50 μg/mL, respectively). […] All cultures were incubated at 37° C. in humidified 95% air-5% CO2.
Cells were seeded in 24-well plates at 1×10^6 cells/mL/well. Upon reaching >90% confluence, cells in each well were transiently transfected with 1.6 μg of plasmid DNA-Lipofectamine 2000 complex using Lipofectamine 2000 method according to manufacturer instructions (Invitrogen). 1.6 μg of plasmid DNA and 4 μL of Lipofectamine 2000 reagent were diluted individually in 100 μL opti-MEM I and incubated for 5 minutes at room temperature with gentle mixing. […]
Cell proliferation was determined by [^3H]thymidine incorporation: Cells were plated in 24-well plates at 10^6 cells/mL/well in complete medium. […] The cells were trypsinized and collected, air-dried on 21 mm glass microfibre filters (Whatman International Ltd., Maidstone, England) and analyzed by scintillation counting in a Wallac-Liquid Scintillator Counter (Perkin Elmer Life Sciences, Boston, Mass., USA). [^3H]thymidine incorporation was expressed as counts per min (cpm) per mL.

[4] = system: Panc-1 human pancreatic carcinoma cells; experiment: Human pancreatic cancer model Panc-1 in SCID mice; assay type: in vivo; conditions: 30 and 60 mg/kg i.p.
Excerpt: Human pancreatic carcinoma cells (“Panc-1 cells”) were originally received from the ATCC (American Type Culture Collection).
(§1) Only those cells with >95% viability were used for in-vivo studies.
(§2) Once tumors reached a size of approximately 0.7 cm^3, they were removed under sterile condition, sliced into small pieces under a stereo-microscope. Each tissue piece was then reinoculated subcutaneously. Only pieces of approximately the same size and with no signs of necrosis were used.
(§3) At the end of the experiment, mice were sacrificed by cervical dislocation and full autopsies were conducted. A picture was taken of tumors from randomly selected mice. The tumors were then fixed in formalin for pathology examination.

[5] = system: OVCAR-3 (human ovarian carcinoma); experiment: Ovarian carcinoma model OVCAR-3 in SCID mice; assay type: in vivo; conditions: QC-56 60 mg/kg/ip
Excerpt: • Species and strain: […] OVCAR-3 (human ovarian carcinoma). […] Control groups received the vehicle alone.

[6] = system: SKMEL-V human melanoma cells; experiment: Human melanoma model SKMEL-V+ in SCID mice (pilot study); assay type: in vivo
Excerpt: Human melanoma cells (“SKMEL-V cells”) were derived from SKMEL-24 cells (ATCC) by over expression of mouse VEGF.
as §1, §2, §3

**Q.** What does the source list for Brc1ccc(CCCCn2ccnc2)cc1.Cl [QC-199, 1-[4-(4-bromophenyl)butyl]-1H-imidazole hydrochloride]?
**A.** % Extrapolated AUC ([1]; brain, IP 60 mg/kg): 13%; AUC(0-inf) ([1]; brain, IP 60 mg/kg): 427 µg·h/g; AUCall (0-12) ([1]; brain, IP 60 mg/kg): 370 µg·h/g; % Extrapolated AUC ([1]; brain, Oral 60 mg/kg): 37%; AUC(0-inf) ([1]; brain, Oral 60 mg/kg): 361 µg·h/g; AUCall (0-12) ([1]; brain, Oral 60 mg/kg): 227 µg·h/g; oral bioavailability ([1]; from oral-to-IP AUC ratios in brain and plasma): moderately high oral bioavailability; concentration at 5 min ([1]; male, CD-1, mouse, brain, 60 mg/kg, IP or oral administration, above the upper calibration range, read-out: brain tissue concentration at 5 min post-dose): > 10000 ng/g; half-life ([1]; male, CD-1, mouse, in vivo, ip, 60 mg/kg, brain, IP 60 mg/kg): 4.3 h; half-life ([1]; male, CD-1, mouse, in vivo, ip, 60 mg/kg, plasma, IP 60 mg/kg): 4.8 h; half-life ([1]; male, CD-1, mouse, in vivo, po, 60 mg/kg, brain, Oral 60 mg/kg): 8.6 h; half-life ([1]; male, CD-1, mouse, in vivo, po, 60 mg/kg, plasma, Oral 60 mg/kg): 7.1 h; Tmax ([1]; male, CD-1, mouse, in vivo, brain, IP 60 mg/kg): 0.167 h; Tmax ([1]; male, CD-1, mouse, in vivo, brain, Oral 60 mg/kg): 0.167 h; AUC(0-inf) ([1]; male, CD-1, mouse, in vivo, plasma, IP 60 mg/kg, read-out: AUC0-inf): 85000 ng·h/mL; AUC ([1]; male, CD-1, mouse, in vivo, plasma, IP 60 mg/kg): 72000 ng·h/mL; AUC(0-inf) ([1]; male, CD-1, mouse, in vivo, plasma, Oral 60 mg/kg, read-out: AUC0-inf): 67000 ng·h/mL; AUC ([1]; male, CD-1, mouse, in vivo, plasma, Oral 60 mg/kg): 47000 ng·h/mL; Cmax ([1]; in vivo, brain, IP 60 mg/kg): 79000 ± 2200 ng/g; Cmax ([1]; in vivo, brain, Oral 60 mg/kg): 39000 ± 2700 ng/g; Cmax ([1]; in vivo, plasma, IP 60 mg/kg): 20000 ± 1200 ng/mL; Cmax ([1]; in vivo, plasma, Oral 60 mg/kg): 9100 ± 800 ng/mL; AUC_%Extrap_obs ([1]; plasma, IP 60 mg/kg): 16%; AUC_%Extrap_obs ([1]; plasma, Oral 60 mg/kg): 30%

**Q.** For Brc1ccc(CCC2(Cn3ccnc3)OCCO2)cc1.Cl [QC-56, 1-((2-(2-(4-Bromophenyl)ethyl)-1,3-dioxolan-2-yl)methyl)-1H-imidazole hydrochloride], which “tumor vascularization (vessel count, size, CD31)” value [2] is on record?
**A.** The value was “significant reduction in the density of blood vessels; also recorded: significant reduction in vascularization; also recorded: significant decrease in the size and number of blood vessels”.

**Q.** What about the “effect of hHO-1 transfection on 3H-thymidine incorporation” value [3] of the same compound?
**A.** Its value is “significantly attenuated”.

**Q.** What about the anti-tumor activity [4] of the same compound?
**A.** Its anti-tumor activity is “not in the pancreatic cancer model Panc-1”.

**Q.** And the “reduction of tumor growth” value [5]?
**A.** The value was “approximately 15%”.

**Q.** What about the “tumor size on the day of sacrifice” value ([5]; CDDP 3 mg/kg) of the same compound?
**A.** The value was 1.12±0.08 cm^3.

**Q.** What about the anti-tumor activity ([6]; 30 and 60 mg/kg i.p.) of the same compound?
**A.** Its anti-tumor activity is “clear anti-tumor activity”.

**Q.** What about the “tumor volumes vs vehicle alone” value ([6]; QC-56 30 mg/kg (P<0.03) and 60 mg/kg (P<0.02)) of the same compound?
**A.** Its value is “statistically significantly smaller”.

**Q.** And the “potency compared with dacarbazine” value ([6]; QC-56 30 and 60 mg/kg vs dacarbazine 50 mg/kg)?
**A.** Its value is “significantly more potent than dacarbazine”.

— patent US20140155445A1, “Compounds and Methods for Treating Cancer and Diseases of the Central Nervous System” (Osta Biotechnologies Inc., priority 2007, published 2014)
